Laboratory results: US8778951B2, “Heteroaryl compounds and their uses” (Novartis AG, priority 2009, dated 2014)
pIC50: −log10 of the molar value.

Each compound was assayed against Cdk9/cyclinT1 (Homo sapiens (Human), UniProt P50750) (assay: Cdk9/CyclinT1 IMAP Protocol (fluorescence polarization kinase assay)). Conditions: Table 2; generated using one of the two Cdk9/cyclinT1 assays (IMAP or Alpha Screen), not specified which; unit inferred.
Format: biochemical
Summary of the method: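 Reaction used 4 nM Cdk9/cyclinT1, 100 nM 5TAMRA-cdk7tide peptide and 6 uM ATP in 100 mM Tris pH 7.2 with MgCl2, 0.01% Tween-20, 1 mM DTT and 2.5% DMSO, running 4.5 h. Phosphopeptide was captured by IMAP binding reagent for >1 h, then read by fluorescence polarization (ex 531/em 595 nm).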

Chain of Cdk9/cyclinT1 (P50750 whole entry): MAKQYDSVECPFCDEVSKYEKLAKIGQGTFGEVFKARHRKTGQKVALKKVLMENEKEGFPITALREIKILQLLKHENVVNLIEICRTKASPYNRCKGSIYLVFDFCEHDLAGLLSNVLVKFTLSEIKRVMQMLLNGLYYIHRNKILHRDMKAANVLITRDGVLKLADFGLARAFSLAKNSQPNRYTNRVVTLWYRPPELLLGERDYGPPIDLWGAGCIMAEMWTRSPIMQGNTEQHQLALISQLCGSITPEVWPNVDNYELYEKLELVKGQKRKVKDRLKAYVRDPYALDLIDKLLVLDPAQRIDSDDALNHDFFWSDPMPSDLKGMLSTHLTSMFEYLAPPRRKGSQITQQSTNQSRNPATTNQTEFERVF
Chain of Cdk9/cyclinT1 (O60563 whole entry partner): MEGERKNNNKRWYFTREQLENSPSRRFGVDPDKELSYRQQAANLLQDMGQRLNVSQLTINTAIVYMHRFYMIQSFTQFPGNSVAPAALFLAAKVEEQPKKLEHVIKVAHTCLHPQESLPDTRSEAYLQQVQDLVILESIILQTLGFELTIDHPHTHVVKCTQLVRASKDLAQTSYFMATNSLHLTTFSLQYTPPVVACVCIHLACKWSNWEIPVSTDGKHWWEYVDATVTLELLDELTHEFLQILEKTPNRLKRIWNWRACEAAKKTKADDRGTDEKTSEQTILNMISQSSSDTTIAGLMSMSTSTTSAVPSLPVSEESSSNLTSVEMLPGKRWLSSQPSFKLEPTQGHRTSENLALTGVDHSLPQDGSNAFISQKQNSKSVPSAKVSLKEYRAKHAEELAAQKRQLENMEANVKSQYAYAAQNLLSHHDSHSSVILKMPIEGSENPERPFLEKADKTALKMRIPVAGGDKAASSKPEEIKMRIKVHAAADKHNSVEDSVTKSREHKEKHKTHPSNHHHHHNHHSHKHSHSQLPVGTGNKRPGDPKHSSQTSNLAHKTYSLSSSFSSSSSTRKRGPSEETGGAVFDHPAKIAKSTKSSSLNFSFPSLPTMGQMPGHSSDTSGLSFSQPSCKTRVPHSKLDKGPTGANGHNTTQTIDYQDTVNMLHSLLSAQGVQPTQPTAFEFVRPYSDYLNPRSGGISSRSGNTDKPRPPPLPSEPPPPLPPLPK

| SMILES | pIC50 |
| --- | --- |
| N[C@H]1CC[C@H](Nc2cc(-c3nc(NCC4CCOCC4)ccc3Cl)c(Cl)cn2)CC1 [Compound 253, N2′-(trans-4-aminocyclohexyl)-3,5′-dichloro-N6-((tetrahydro-2H-pyran-4-yl)methyl)-2,4′-bipyridine-2′,6-diamine] | 8.10 |
| CS(=O)(=O)CCN[C@H]1CC[C@H](Nc2cc(-c3nc(NCC4CCOCC4)ccc3Cl)c(Cl)cn2)CC1 [Compound 254, 3,5′-dichloro-N2′-(trans-4-(2-(methylsulfonyl)ethylamino)cyclohexyl)-N6-((tetrahydro-2H-pyran-4-yl)methyl)-2,4′-bipyridine-2′,6-diamine] | 8.08 |
| N[C@H]1CC[C@H](Nc2cc(-c3nc(NCC4CCOCC4)cnc3C(F)(F)F)c(Cl)cn2)CC1 [Compound 255, trans-N1-(5-chloro-4-(6-((tetrahydro-2H-pyran-4-yl)methyl)amino-3-(trifluoromethyl)pyrazin-2-yl)pyridin-2-yl)cyclohexane-1,4-diamine] | 7.37 |
| COCCN[C@H]1CC[C@H](Nc2cc(-c3nc(NCC4CCOCC4)ccc3Cl)c(Cl)cn2)CC1 [Compound 258, 3,5′-dichloro-N2′-(trans-4-(2-methoxyethylamino)cyclohexyl)-N6-((tetrahydro-2H-pyran-4-yl)methyl)-2,4′-bipyridine-2′,6-diamine] | 8.10 |
| OCCN[C@H]1CC[C@H](Nc2cc(-c3nc(NCC4CCOCC4)ccc3Cl)c(Cl)cn2)CC1 [Compound 259, 2-(trans-4-(3,5′-dichloro-6-((tetrahydro-2H-pyran-4-yl)methyl)amino-2,4′-bipyridin-2′-yl-amino)cyclohexylamino)ethanol] | 8.10 |
| N[C@H]1CC[C@H](Nc2cc(-c3nc(NCC4CCOCC4)ccc3Cl)c(F)cn2)CC1 [Compound 260, N2′-(trans-4-aminocyclohexyl)-3-chloro-5′-fluoro-N6-((tetrahydro-2H-pyran-4-yl)methyl)-2,4′-bipyridine-2′,6-diamine] | 8.10 |
| N[C@H]1CC[C@H](Nc2cc(-c3cncc(NC[C@H]4CCCOC4)n3)c(Cl)cn2)CC1 [Compound 261] | 8.10 |
| N[C@H]1CC[C@H](Nc2cc(-c3cncc(NC[C@@H]4CCCOC4)n3)c(Cl)cn2)CC1 [Compound 262] | 8.10 |
| O[C@H]1CC[C@H](Nc2cc(-c3cncc(NC[C@H]4CCCOC4)n3)c(Cl)cn2)CC1 [Compound 263] | 8.10 |
| O[C@H]1CC[C@H](Nc2cc(-c3cncc(NC[C@@H]4CCCOC4)n3)c(Cl)cn2)CC1 [Compound 264] | 8.10 |
| N[C@H]1CC[C@H](Nc2cc(-c3nc(NCC4CCOCC4)c(Cl)cc3Cl)c(Cl)cn2)CC1 [Compound 266, N2′-(trans-4-aminocyclohexyl)-3,5,5′-trichloro-N6-((tetrahydro-2H-pyran-4-yl)methyl)-2,4′-bipyridine-2′,6-diamine] | 8.10 |
| N[C@H]1CC[C@H](Nc2cc(-c3ccc(F)c(NCC4CCOCC4)n3)c(Cl)cn2)CC1 [Compound 269, N2′-(trans-4-aminocyclohexyl)-5′-chloro-5-fluoro-N6-((tetrahydro-2H-pyran-4-yl)methyl)-2,4′-bipyridine-2′,6-diamine] | 8.10 |
| Clc1cnc(N[C@H]2CC[C@H](NCC3COCCO3)CC2)cc1-c1nc(NCC2CCOCC2)ccc1Cl (stereo partly shown) [Compound 271] | 8.10 |
| COCCN(C)[C@H]1CC[C@H](Nc2cc(-c3nc(NCC4CCOCC4)ccc3Cl)c(Cl)cn2)CC1 [Compound 272, 3,5′-dichloro-N2′-(trans-4-((2-methoxyethyl)(methyl)amino)cyclohexyl)-N6-((tetrahydro-2H-pyran-4-yl)methyl)-2,4′-bipyridine-2′,6-diamine] | 8.10 |
| Clc1ccc(NCC2CCOCC2)nc1-c1ccnc(N[C@H]2CC[C@H](NC[C@H]3CCCO3)CC2)c1 [Compound 273] | 7.64 |
| COCCN[C@H]1CC[C@H](Nc2cc(-c3nc(NCC4CCOCC4)ccc3Cl)ccn2)CC1 [Compound 274] | 7.42 |
| O[C@H]1CC[C@@H](Nc2cc(-c3cccc(NCC4CCOCC4)n3)c(Cl)cn2)CC1 [Compound 275] | 6.83 |
| COCCN[C@H]1CC[C@H](Nc2cc(-c3cccc(NCC4CCOCC4)n3)c(Cl)cn2)CC1 [Compound 276] | 8.05 |
| Clc1cnc(N[C@H]2CC[C@H](NC[C@H]3CCCO3)CC2)cc1-c1cccc(NCC2CCOCC2)n1 [Compound 277] | 8.10 |
| Clc1cnc(N[C@H]2CC[C@H](NC[C@@H]3CCCO3)CC2)cc1-c1cccc(NCC2CCOCC2)n1 [Compound 278] | 8.10 |
| COCCN(C)[C@H]1CC[C@H](Nc2cc(-c3cccc(NCC4CCOCC4)n3)c(Cl)cn2)CC1 [Compound 279] | 7.88 |

Continued, values first:

| pIC50 | SMILES |
| --- | --- |
| 7.21 | Fc1ccc(-c2cc(N[C@H]3CC[C@H](NC4COC4)CC3)ncc2Cl)nc1NCC1CCOCC1 [Compound 281] |
| 9.00 | C[C@@H]1CC(CNc2cccc(-c3cc(N[C@H]4CC[C@H](N)CC4)ncc3Cl)n2)C[C@H](C)O1 (stereo partly drawn) [Compound 284, N2′-(trans-4-aminocyclohexyl)-5′-chloro-N6-(((2R,6S)-2,6-dimethyltetrahydro-2H-pyran-4-yl)methyl)-2,4′-bipyridine-2′,6-diamine] |
| 8.70 | COCCN[C@H]1CC[C@H](Nc2cc(-c3cccc(NCC4C[C@@H](C)O[C@@H](C)C4)n3)c(Cl)cn2)CC1 (stereo partly drawn) [Compound 285, 5′-chloro-N6-(((2R,6S)-2,6-dimethyltetrahydro-2H-pyran-4-yl)methyl)-N2′-(trans-4-(2-methoxyethylamino)cyclohexyl)-2,4′-bipyridine-2′,6-diamine] |
| 9.00 | N[C@H]1CC[C@H](Nc2cc(-c3nc(NCC4CCOCC4)ccc3Br)c(Cl)cn2)CC1 [Compound 286, N2′-(trans-4-aminocyclohexyl)-3-bromo-5′-chloro-N6-((tetrahydro-2H-pyran-4-yl)methyl)-2,4′-bipyridine-2′,6-diamine] |
| 8.70 | O[C@@H](CN[C@H]1CC[C@H](Nc2cc(-c3nc(NCC4CCOCC4)ccc3Cl)c(Cl)cn2)CC1)C(F)(F)F [Compound 290] |
| 8.70 | COCCN[C@H]1CC[C@H](Nc2cc(-c3nc(NCC4CCOCC4)ccc3Br)c(Cl)cn2)CC1 [Compound 292, 3-bromo-5′-chloro-N2′-(trans-4-(2-methoxyethylamino)cyclohexyl)-N6-((tetrahydro-2H-pyran-4-yl)methyl)-2,4′-bipyridine-2′,6-diamine] |
| 9.00 | COC[C@@H](C)N[C@H]1CC[C@H](Nc2cc(-c3nc(NCC4CCOCC4)ccc3F)c(Cl)cn2)CC1 [Compound 293] |
| 9.00 | COC[C@@H](C)N[C@H]1CC[C@H](Nc2cc(-c3ccc(F)c(NCC4CCOCC4)n3)c(Cl)cn2)CC1 [Compound 294] |
| 9.00 | CC1(C)CC(CNc2ccc(Cl)c(-c3cc(N[C@H]4CC[C@H](O)CC4)ncc3Cl)n2)CCO1 (stereo partly drawn) [Compound 297, trans-4-(3,5′-dichloro-6-((2,2-dimethyltetrahydro-2H-pyran-4-yl)methyl)amino-2,4′-bipyridin-2′-yl-amino)cyclohexanol] |
| 9.00 | CC1(C)CC(CNc2ccc(Cl)c(-c3cc(N[C@H]4CC[C@H](NC[C@H](O)C(F)(F)F)CC4)ncc3Cl)n2)CCO1 (stereo partly drawn) [Compound 298, (2S)-3-(trans-4-(3,5′-dichloro-6-((2,2-dimethyltetrahydro-2H-pyran-4-yl)methyl)amino-2,4′-bipyridin-2′-yl-amino)cyclohexylamino)-1,1,1-trifluoropropan-2-ol] |
